Values after ≈ are worked out from the molar mass of the structure shown. Positions of bridges follow the written chain, without caps; N, C: chain ends. Residues, ends and D or L forms follow the SMILES beside them.
Key:
[1] = 25% human serum in PBS (pH 7.4) from healthy donor; conditions: 37 °C, up to 24 h
Gram-positive bacteria = type: cell-based; conditions: 24 h
Description: (§1) The antimicrobial activity of the peptides was determined via the method of two-fold serial dilutions in sterile 96-well flat-bottom polystyrene microplates (Eppendorf #0030730011) in Mueller–Hinton broth (MHB, Sigma, Kawasaki, Kanagawa, Japan) supplemented with 0.9% NaCl. Bacterial cultures were grown in MHB at 37 °C until the culture reached an optical density OD600 of 1.0 and diluted with the broth so that to reach a final cell concentration of 10^6 CFU/mL. Then 50 μL of the test culture were added to 50 μL of aqueous solutions of the peptides, previously diluted in 0.1% sterilized bovine serum albumin (BSA) to reduce non-specific binding of the peptides to the surface of the plates. Next, the plate was incubated for 24 h at 37 °C and 950 rpm on the plate thermoshaker (Biosan). The values of the minimum inhibitory concentrations (MIC) were determined as the minimum concentration of the peptide, at which there is no culture growth. The results were expressed as the median values of three independent experiments performed in triplicate.

human red blood cells = type: cell-based
Description: Figure 4 (A) Hemolytic effect on human red blood cells after 2 h incubation (hemoglobin release assay). (B) Cytotoxicity toward transformed human embryonic kidney cells after 20 h incubation (MTT-assay). The positive control used was 0.1% Triton X-100 and sterile PBS as a negative control. Melittin was used as an additional positive control. The data are presented as the mean ± SD of three independent experiments.
The hemolytic activity of compounds was performed using human red blood cells (hRBS) of healthy donor. Fresh blood was centrifuged to separate the erythrocyte fraction for 15 min at 500 g and washed three times with cold phosphate-buffered saline (PBS) (pH 7.4), after which an 8% (v/v) suspension of erythrocytes in PBS was prepared. Then, 50 µL of erythrocyte suspension was added to the test peptides, previously were dissolved in 50 µL of 0.1% BSA. The plate was incubated for 1.5 h at 37 °C and 950 rpm on the plate thermoshaker. After incubation, the plates were centrifuged for 15 min at 1000 g to settle intact erythrocytes. Next, aliquots of the supernatant were transferred to another plate to measure the amount of hemoglobin release by the absorbance of the solution at 405 nm. As “zero lysis” we used the supernatant obtained after centrifugation of erythrocytes incubated in a PBS solution without the addition of a peptide. As “100% lysis”, we used the supernatant obtained after centrifugation of erythrocytes incubated in a 0.1% Triton X-100, causing their complete lysis. The assays were conducted three times. The quantitative data were presented as an average means with standard deviations. Hemolysis(%)=OD405(compound)−OD405(zerolysis)/OD405(100%lysis)−OD405(zerolysis)×100%

[2] = RP-HPLC retention time as measure of hydrophobicity; type: physicochemical; conditions: chromatographic, semipreparative RP-HPLC, C18 column, linear gradient 5 to 80% (v/v) acetonitrile in water with 0.1% TFA within 50 minutes; used as measure of hydrophobicity
Description: Table S1. Characteristics of the recombinant AMPs.
1 Mean Kyte–Doolittle hydrophobicity index (GRAVY) was calculated using the Expasy ProtParam tool. The maximum and minimum values of this index are +4.5 and -4.5 for poly-Ile and poly-Arg sequences, respectively. 2 Retention times were measured using semipreparative reversed-phase high-performance liquid chromatography (RP - HPLC) on a C18 column with a linear gradient from 5 to 80% ( v/v) acetonitrile in water containing 0.1% trifluoroacetic […]
acid (TFA) within 50 minutes. […]

Gram-negative bacteria = experiment: Geometric mean of MICs, Gram-negative panel; type: cell-based; conditions: geometric mean (GM) of MICs against the 14 Gram-negative strains of Figure 2
Description: as §1

in vitro = conditions: male, human, 25% fresh human serum, pH 7.4
Description: After incubation, serum proteins were selectively precipitated from the mixture by adding 10% TFA in the presence of 3 M urea. […] Two independent experiments in duplicate were performed for each peptide.

E. coli ATCC 25922 [3] = type: cell-based; conditions: MHB + 0.9% NaCl, 0.1% BSA, 24 h, 37 °C; median of three independent experiments
E. coli ML-35p = system: E. coli ML-35p
Description: Initially, antimicrobial activity of abarenicin and UuBRI-21 was evaluated against the reference strain of E. coli (ML-35p) under various conditions (Table 1). Minimal inhibitory concentrations (MICs) were determined via two-fold serial dilutions in 96-well polystyrene plates. Serial dilutions were made in 0.1% bovine serum albumin (BSA) to minimize the absorption of peptides on the surface of plate wells. Mueller–Hinton broth (MHB) supplemented with 0.9% NaCl was used as the standardized medium.
as §1, with “Bacterial” for “The antimicrobial activity of the peptides was determined via the method of two-fold serial dilutions in sterile 96-well flat-bottom polystyrene microplates (Eppendorf #0030730011) in Mueller–Hinton broth (MHB, Sigma, Kawasaki, Kanagawa, Japan) supplemented with 0.9% NaCl. Bacterial”

E. coli 3421/E19 = experiment: Neutropenic mice peritonitis model; type: in vivo, BALB/c mice
Description: Immune-deficient mice were inoculated intraperitoneally (i.p.) with bacterial suspension. Antimicrobial agent was administered 1 h post-infection, and colony counts in blood and peritoneal fluid (PF) were determined 5 h later.
(A) The mice peritonitis model. […] Horizontal bars indicate means ± SD.
Food and water were provided ad libitum.
CFU counts were determined from blood and peritoneal fluid (PF) 5 h after treatment. The mice were euthanized by CO2 asphyxiation and blood was collected by axillary cut down. A total of 2 mL sterile saline was injected i.p. and the abdomen gently massaged before it was opened, fluid sampled with a pipette, serially diluted and placed on Endo agar supplemented with 20 µg/mL of tetracycline for CFU identification.

E. coli ATCC 25922 [4] = experiment: Mice septicemia model, survival; conditions: BALB/c mice, n = 8, E. coli ATCC 25922 i.p. with 2.5% mucin; peptide i.p. 10 mg/kg at 1 and 4 h post-infection; 7 days
Description: Ciprofloxacin (the single dose of 10 mg/kg) and saline were used as the positive and negative controls, respectively. […] Mice were controlled once daily for their health status during 7 post-infection days.
Then, we examined an efficacy of AMPs in the mice septicemia model using 8 animals in a group (Figure 10B).
Experiments were performed with female 8–10-week-old BALB/c mice (22–24 g, “Andreevka” laboratory animal nursery FMBA, Russia). […] All animal experiments were performed at the State Research Center for Applied Microbiology and Biotechnology (SRCAMB) in Obolensk, Russia. The animals were housed in groups of 5 in polycarbonate cages. Food and water were provided ad libitum.
A total of 4 groups with 8 animals were used. The first group received ciprofloxacin (Sigma, Kawasaki, Kanagawa, Japan) administered i.p. once (1 h post-infection) at a dose of 10 mg/kg. The second group received saline (as a vehicle control) administered i.p. once (1 h post-infection). […] Survival was monitored for 7 days. After that survived animals were euthanized by CO2 asphyxiation.

[5] = system: P. aeruginosa PAO1 mature biofilms; experiment: Effect on mature biofilms, viability by MTT; conditions: P. aeruginosa PAO1 pre-formed biofilm, 16 µM, 2-h exposure
Description: Biofilm viability was measured by tetrazolium salt reduction (right panel). Values are presented as means ± the standard deviation (SD) of three independent experiments.
The effect of peptides on pre-formed biofilms was evaluated as follows. Biofilms were grown on a 96-well plate at 32 °C for 24 h and stirred at 120 rpm to ensure biofilm formation primarily on the wall of the wells. […] Bacterial survival in the biofilms after 2-h exposure was evaluated via a MTT assay after incubation with a tested peptide. Then, wells were rinsed with sterile water, treated with an MTT solution (Sigma, Kawasaki, Kanagawa, Japan) in PBS, and incubated for 4 h at 37 °C. Next, the medium was removed. The resulting formazan crystals were dissolved in a mixture of EtOH and DMSO (1:1) for 10 min. The optical density of the solution was measured at 570 nm. Bacterial survival was calculated as percent relative to samples without antimicrobial agent. All data were obtained from at least three independent experiments in 3 repetitions.

P. aeruginosa PAO1 = experiment: Inhibition of biofilm formation, crystal violet; type: cell-based; conditions: 24 h, LB, 32 °C
From the text: Such an adaptive and survival mechanism is mediated by biofilms, which constitutes the community of sessile bacteria embedded within the self-produced extracellular polymeric substance (EPS) that defends them from chemical, biological, and physical stress; it also […] foreign invaders. Besides the fact that EPS decreases concentration of antibiotics, bacteria inside biofilm are characterized by a reduced rate of cell divisions, an increased expression of stress response genes, an occurrence of persistent cells, and exchange of resistance genes leading to a broader spread of tolerant biofilm-growing bacteria. For the treatment of biofilm-associated infections a high concentration of antibiotics is required that also increases toxicity toward human cells. Antimicrobial peptides are able to act on certain stages of biofilm formation and various molecular targets and are considered as promising candidates for the development of new antibiofilm agents. […] Bacterial biomass amount was evaluated using the standard crystal violet assay over a 24 h incubation period with each drug. […]
Masses of biofilms were evaluated by dying with 0.1% CV. […]
The ability of peptides to influence the formation of biofilms was evaluated by the method of two-fold serial dilutions in a liquid nutrient medium. […] Further, the extracts were transferred to a new plate and absorption was measured at 570 nm. […]

Molecule	cleaved bond [1]	Minimum inhibitory concentration (MIC): Gram-positive Geometric mean (Gram-positive bacteria)	Hemolytic activity (in words) (human red blood cells)	RP-HPLC Retention Time [2]	Minimum inhibitory concentration (MIC): Gram-negative Geometric mean (Gram-negative bacteria)	remaining at 2 h, 0.12 mg/mL (in vitro)	Minimum inhibitory concentration (MIC): E. coli ATCC 25922 (E. coli ATCC 25922 [3])	Fold reduction of antibacterial activity in the presence of serum (E. coli ML-35p; MHB + 0.9% NaCl with 25% FBS versus without)	Minimum Inhibitory Concentration, MHB + 0.9% NaCl + 25% FBS (E. coli ML-35p; Table 1, medium with 25% fetal bovine serum)	Minimum Inhibitory Concentration, MHB + 0.9% NaCl (E. coli ML-35p; Table 1, without FBS, dilutions in 0.1% BSA)	Bacterial burden in mice blood (in words) (E. coli 3421/E19; neutropenic BALB/c mice, n = 5, i.p. infection, single i.v. dose 1 h post-infection (AMPs 10 mg/kg, polymyxin B 5 mg/kg), CFU 5 h after treatment)	Reduction of the CFU level in peritoneal fluid (PF) (E. coli 3421/E19; neutropenic BALB/c mice, n = 5, single i.v. dose (AMPs 10 mg/kg, polymyxin B 5 mg/kg), CFU 5 h after treatment)	Efficacy in the neutropenic peritonitis model (in words) (E. coli 3421/E19; single i.v. dose of 10 mg/kg, E. coli 3421/E19)	Therapeutic efficacy (survival) after one-week experiment (E. coli ATCC 25922 [4])	Residual viability of bacteria in mature biofilm [5]	Inhibition of biofilm formation (in words) (P. aeruginosa PAO1)
GYCFTACYLRNGVRICYRRCN	glycine-Y, major															
CC[C@H](C)[C@@H]1NC(=O)[C@H](CCCNC(=N)N)NC(=O)[C@H](C(C)C)NC(=O)CNC(=O)[C@H](CC(N)=O)NC(=O)[C@H](CCCNC(=N)N)NC(=O)[C@H](CC(C)C)NC(=O)[C@H](Cc2ccc(O)cc2)NC(=O)[C@@H]2CSSC[C@H](NC1=O)C(=O)N[C@@H](Cc1ccc(O)cc1)C(=O)N[C@@H](CCCNC(=N)N)C(=O)N[C@@H](CCCNC(=N)N)C(=O)N[C@H](C(=O)N[C@@H](CC(N)=O)C(=O)O)CSSC[C@H](NC(=O)[C@H](Cc1ccc(O)cc1)NC(=O)CN)C(=O)N[C@@H](Cc1ccccc1)C(=O)N[C@@H]([C@@H](C)O)C(=O)N[C@@H](C)C(=O)N2 [Abarenicin] (H-GYCFTACYLRNGVRICYRRCN-OH; disulfide 3-20, 7-16)		2.52 µM (≈ 6.37 µg/mL)	moderate hemolytic activity	25.77 min	0.45 µM (≈ 1.14 µg/mL)	> 90%	0.25 µM	4 fold	1 µM	0.25 µM						
CC[C@H](C)[C@@H]1NC(=O)[C@H](CCCNC(=N)N)NC(=O)[C@H](C(C)C)NC(=O)CNC(=O)[C@H](CC(N)=O)NC(=O)[C@H](CCCNC(=N)N)NC(=O)[C@H](CCCNC(=N)N)NC(=O)[C@H](C)NC(=O)[C@@H]2CSSC[C@H](NC1=O)C(=O)N[C@@H](Cc1ccc(O)cc1)C(=O)N[C@@H](CCCNC(=N)N)C(=O)N[C@@H](CCCNC(=N)N)C(=O)N[C@H](C(=O)N[C@@H](CC(N)=O)C(=O)O)CSSC[C@H](NC(=O)[C@H](Cc1ccc(O)cc1)NC(=O)CN)C(=O)N[C@@H](Cc1ccccc1)C(=O)N[C@@H]([C@@H](C)O)C(=O)N[C@@H](C)C(=O)N2 [Ap9]		3.17 µM (≈ 7.86 µg/mL)	insignificant toxicity toward human erythrocytes	25.37 min	0.26 µM (≈ 0.645 µg/mL)						complete reduction	~ 5 log	effective	100%	about 20%	more effective in biofilm prevention at sub-inhibitory concentration

From paper PMC9410094 (Marine Drugs, 2022)
